# Test results as given in US10155802B2, “Locally-active anticoagulants and anti-inflammatory agents” (priority 2011, dated 2018).
# Entries after “also recorded” stand apart in the source; their conditions may differ.
# Assays:
# [1] = test system: FeCl3-induced venous thrombosis (vena cava); assay: FeCl3-induced venous model of thrombosis in rats (thrombus weight); format: in vivo; conditions: rat, single-bolus injection via tail vein
# Experimental: Male Sprague-Dawley rats (250-310 g; Charles River Laboratories, St-Constant, QC, Canada) were acclimated for at least 3 days prior to the start of the study. Animals were housed in microisolator cages and were kept on a 12-hr light/dark cycle with constant temperature and humidity. Food and water were provided ad libitum. Various anti-thrombotic agents and peptides of this invention were dissolved in saline (0.9% sodium chloride) prior to use.
# The FeCl3-induced venous model of thrombosis in rats was generated as described by Wang and Xu (Wang 2005) with some modifications (Couture 2011). Briefly, rats were anesthetized with a 2.5% isoflurane/oxygen mixture and placed on a heat source (35-37° C.). The vena cava was then exposed via a midline incision and the region between the renal and iliolumbar veins was isolated. […]
# Protein content of the thrombus was also measured according to protocol by Wang (Wang 2005). […] Contents of amino acids and small peptides were measured at OD280 with digestion buffer used as a blank.
# Statistical analysis was conducted using GraphPad™ Prism (GraphPad Software Inc., San Diego Calif., USA). Data were analyzed using one-way ANOVA with post-hoc Bonferroni correction for multiple comparisons. The relationship between thrombus weight and thrombus volume was determined by linear regression. […]
# [2] = test system: pooled human plasma; assay: Activated partial thromboplastin time (APTT) clotting assay; format: biochemical
# Method in brief: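 Test compound diluted in HBS (20 mM HEPES, 150 mM NaCl, pH 7.4), mixed with pooled normal human plasma at 37 °C; APTT started with APTT reagent then CaCl2, PT with thromboplastin. APTT value is concentration giving 50% of maximum clotting delay (MCT50); PT IC50 is concentration prolonging clotting time by 50%.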
# [3] = test system: fresh blood withdrawn from rats with venous thrombosis; assay: Clotting time (aPTT) of fresh blood withdrawn from treated rats; format: in vivo; conditions: rat, 0.2 mg/kg bolus + 0.00433 mg/kg/min infusion; 20 minutes after administration versus before
# Experimental: FIG. 23 illustrates the clotting times (aPTT) determined for fresh blood withdrawn from rats with venous thrombosis at three time points, the first before drug administration and vessel injury, the second at 20 minutes after FeCl3 application and the third 60 minutes following injection of the respective thrombin inhibitors. Clotting times (aPTT) are shown for different rats administered with each thrombin inhibitor, ZIP4 for MH2-wZIP4, ZIP5 for MH2-wZIP5 and T218 for BRI-T218. Dosage levels for every compound were 0.2 mg/kg for the single-bolus injection and 0.00433 mg/kg/min for the maintenance infusion,
# Terminal blood samples were analyzed for aPTT within 15 to 30 minutes of collection using a Coag DX Analyzer with aPTT citrate cartridges (IDEXX Laboratories, Westbrook, Me., USA).
smiles,measurement,setting,value
CC[C@H](C)[C@H](N)C(=O)N[C@@H](CCCNC(=N)N)C(=O)N[C@@H](Cc1ccccc1)C(=O)N[C@H](C(=O)N[C@@H](CC(=O)O)C(=O)NCC(=O)N[C@@H](CCC(=O)O)C(=O)N[C@@H](Cc1c[nH]c2ccccc12)C(=O)N[C@H](C(=O)N[C@@H](Cc1c[nH]c2ccccc12)C(=O)N[C@@H](CC(=O)O)C(=O)N[C@@H](CC(=O)O)C(=O)N[C@@H](C)C(=O)N[C@H](C(=O)N[C@@H](CCCCN)C(=O)N[C@H](C(=O)N[C@@H](Cc1c[nH]c2ccccc12)C(=O)N[C@H](C(=O)N[C@@H](Cc1c[nH]c2ccccc12)C(=O)N[C@H](C(=O)N[C@@H](CCC(=O)O)C(=O)NCC(=O)N[C@@H](CC(=O)O)C(=O)N[C@@H](Cc1ccccc1)C(=O)N[C@@H](CCC(=O)O)C(=O)N[C@@H](CCC(=O)O)C(=O)N[C@H](C(=O)N1CCC[C@H]1C(=O)N[C@@H](CCC(=O)O)C(=O)N[C@@H](CCC(=O)O)C(=O)N[C@@H](Cc1ccc(O)cc1)C(=O)N[C@@H](CC(C)C)C(=O)N[C@@H](CCC(N)=O)C(=O)O)[C@@H](C)CC)[C@@H](C)O)[C@@H](C)O)[C@@H](C)O)[C@@H](C)O)[C@@H](C)O)[C@@H](C)O [MH2-wZIP4],"reduction of thrombus weight, venous model",[1],"particularly efficacious in reducing the weight of local thrombus formation; also recorded: more effective than other anti-thrombotic agents (heparin, argatroban and bivalirudin)"
same,EC50,"[2]; 37° C., concentration for 50% of maximum delay in clotting time, read-out: MTC50 (APTT)",8 µM
same,dose response in APTT assays,[2]; in words,saturable dose response
same,"clotting time (aPTT), systemic anticoagulant effect",[3],only a slight prolongation of the clotting time (aPTT)
